Reference: US20250154358A1, “ORGANIC DYE COMPOSITION, AND SPRAY AGENT COMPRISING SAME” (PANASONIC INTELLECTUAL PROPERTY MANAGEMENT CO., LTD., priority 2022, published 2025)

Columns and labels:
E. coli = assay: Color change observation after spraying on bacterial liquid (E. coli); type: cell-based; settings: detection of E. coli; statement in the discussion
Method: 100 μL of a bacterial liquid (E. coli, […]) was added dropwise onto a slide glass. Then, a sample solution (organic dye composition) of each of Examples and Comparative Examples was placed in a spray bottle (φ39×147 mm, capacity 100 ml), and sprayed (one push) to the bacterial liquid on the slide glass. Thereafter, after leaving for 15 minutes, the following fluorescence observation and color change observation were performed. • Fluorescence observation (visual visibility)
For fluorescence observation, the sprayed part was irradiated with an LED light (530 nm output, color: green), and visual observation was performed through a red filter. The evaluation criteria were as follows. • good: Emission of the solution can be clearly visually recognized • fair: Emission of the solution can be visually recognized but very weak • poor: Emission of the solution cannot be visually recognized • Color change • Color change was visually observed and evaluated according to the following criteria: • good: Color change of the solution can be clearly visually recognized • fair: Color change of the solution can be visually recognized but very weak • poor: Color change of the solution cannot be visually recognized or no color change occurs

Staphylococcus aureus = assay: Color change observation after spraying on bacterial liquid (Staphylococcus aureus); type: cell-based; settings: detection of S. aureus; statement in the discussion

CC(C)COC(=O)Oc1ccc2nc3ccc(=O)cc-3oc2c1 [Formula (4)]
color change, compared with the dye represented by Formula (2) (E. coli): more clearly visually recognized | color change, compared with the dye represented by Formula (2) (Staphylococcus aureus): more clearly visually recognized
